Test results: paper PMC6332026, “Synthesis and Pharmacochemistry of New Pleiotropic Pyrrolyl Derivatives” (Molecules, 2015)
Marks after values point to notes of the source that are not given here.

Legend:
[1] = Inhibition of heme-dependent lipid peroxidation of linoleic acid (TBA method); details: pH 7.4, 37 °C
Procedure: The anti-lipid peroxidation activity was determined through the inhibition of heme-dependent lipid peroxidation. The peroxidation of sodium linoleate is induced from a mixture of heme and hydrogen peroxide, which produces free radicals from the side chains of amino acids. The assay is performed at pH 7.4 with a phosphate buffer, and the products of peroxidation are identified with the thiobarbituric acid method (TBA). In particular, malonic dialdehyde, a final product of lipid peroxidation, reacts with TBA and forms a colored product, whose absorbance is measured at 535 nm. […] Compounds 2ii and 2vi with low Clog P values are weak inhibitors of lipid peroxidation. It seems that the increase of volume of Ar^1, measured as molar refractivity MR (Ar^1), enhances IC50 values and reduces the inhibitory activity (2i and 2iii; and 2ii, 2iv and 2vi). For derivatives 2iv and 2v, the presence of an electron-acceptor, e.g., a chloro-substituent on the phenyl ring (Ar^2), diminishes the anti-lipid peroxidation activity.
Firstly, 0.4 mL of heme (50 μΜ), 0.25 mL of sodium linoleate (400 μΜ), 0.1 mL of the solutions of the tested compounds (concentrations varying from 10–100 μΜ in DMSO) and 0.25 mL of H2O2 (500 μΜ) were incubated for 10 min in 37 °C in a phosphate buffer (KH2PO4–KOH 50 mM, pH 7.4). The peroxidation products were identified with the reaction of thiobarbituric acid, by adding successively 0.5 mL of 40% trichloroacetic acid (TCA) and 0.5 mL of 2% of thiobarbituric acid (TBA). The addition was followed by stirring and heating at 90 °C for 20 min, and then, 1 mL of acetic acid and 1 mL of chloroform were added and the absorbance measured at 535 nm. IC50 values were determined.

[2] = Superoxide radical scavenging activity (non-enzymatic, PMS/NADH, NBT method); details: 100 μM
Source text: Superoxide anion radical is an active form of oxygen, and it is the product of the one-electron reduction of […] oxygen. Herein, superoxide radicals were formed by mixing phenazine methosulfate (PMS) with NADH and air-oxygen. The production of radicals was estimated with the nitroblue-tetrazolium method (NBT). From the tested pyrroles, Compounds 2i and 2iii were equipotent (57%) scavengers. […] In contrast, the dipole moment appeared to be important. The values of the dipole, as calculated by the program Spartan v.5.1.3.
The superoxide anion radicals were produced non-enzymatically by mixing phenazine methosulfate (PMS) with NADH and air-oxygen. The production of superoxide radicals was estimated with the nitroblue-tetrazolium (NBT) method with 3 μΜ PMS, 78 μΜ NADH and 25 μΜ NBT in 19 μΜ phosphate buffer pH 7.4. The absorbance was measured at 560 nm at room temperature. The tested compounds were added in the mixture 2 min before the addition of NADH [52].

[3] = Interaction with the stable free radical DPPH (reducing activity); details: for RA % (interaction with DPPH): DPPH 50 μM; for interaction with DPPH: 10 μM compound
Procedure: 2,2-Diphenyl-1-picrylhydrazyl (DPPH) is a lipophilic, free, stable radical, which absorbs at 517 nm (violet color). Upon reduction, decolorization is observed that is stoichiometric to the number of received electrons and is representative of the antioxidant ability of compounds. […] This interaction, which indicates their radical scavenging ability in an iron-free system, was measured at 100 and 1000 μM after 20 and 60 min, whereas the final concentration of DPPH was stable at 50 μΜ.
[…] The absorbance was measured at 517 nm after 20 and 60 min at room temperature.

[4] = tested on: carrageenan-induced rat paw edema; test: Inhibition of rat paw edema induced by carrageenan; assay type: in vivo, Fischer 344 rats; details: 0.01 mmol/kg body weight, intraperitoneally, 3.5 h; for inhibition in vivo at 10 µmol/kg: Rattus norvegicus, ip, read-out: CPE % inhibition of rat paw edema induced by carrageenan
Procedure: The pyrrolyl derivatives, as well as their precursor chalcones were tested in vivo for the inhibition of rat paw edema induced by carrageenan. […] […]. For Compounds 2i, 2iii, 2iv and 2v, we determined their ED50 values. […]. The finding supports the primary idea of this design.
Edema was induced in the right hind paw of Fischer 344 rats (150–200 g). In the study, both males and females were included, with the exemption of pregnant females. The animals, which have been bred in our laboratory, were housed under standard conditions and received a diet of commercial food pellets and water ad libitum during maintenance. One hour before the onset of the experiment, food and water were removed. The tested compounds (dose 0.01 mmol/kg body weight) were diluted in water with a few drops of Tween 80, and they were administered intraperitoneally simultaneously with the intradermal injection of 0.1 mL 2% of carrageenan in water. The animals were euthanatized 3.5 h after the carrageenan administration. The difference between the weight of injected and uninjected paws was calculated for each animal and was compared to control animals, which were treated with water. Indomethacin was used as a reference compound in 0.01 mmol/kg. The results were expressed as the percent inhibition of the edema (CPE %).

[5] = molecular target: T1, COX-2 (Homo sapiens, UniProt P35354); test: Inhibition of cycloxygenase-2 (colorimetric TMPD assay)
T1 sequence (P35354 18-604): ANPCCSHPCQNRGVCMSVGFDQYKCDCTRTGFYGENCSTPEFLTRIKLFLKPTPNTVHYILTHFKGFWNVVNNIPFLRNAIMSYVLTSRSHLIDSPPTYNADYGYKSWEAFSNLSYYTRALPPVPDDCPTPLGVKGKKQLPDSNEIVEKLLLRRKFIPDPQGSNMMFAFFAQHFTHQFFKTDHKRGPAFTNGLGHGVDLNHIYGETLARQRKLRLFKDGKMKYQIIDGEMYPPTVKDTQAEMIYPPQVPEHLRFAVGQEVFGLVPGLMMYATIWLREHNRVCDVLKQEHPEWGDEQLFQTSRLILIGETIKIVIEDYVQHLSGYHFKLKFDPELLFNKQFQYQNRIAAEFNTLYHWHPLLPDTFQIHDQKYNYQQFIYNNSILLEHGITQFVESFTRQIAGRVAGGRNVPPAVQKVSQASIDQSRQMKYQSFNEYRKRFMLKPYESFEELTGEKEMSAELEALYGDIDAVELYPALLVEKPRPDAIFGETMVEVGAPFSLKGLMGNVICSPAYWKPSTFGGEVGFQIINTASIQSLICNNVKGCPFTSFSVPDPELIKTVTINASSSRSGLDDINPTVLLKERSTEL
Procedure: The inhibition of COX-2, as a peroxidase, was determined by a colorimetric assay with the oxidation of N,N,N′,N′-tetramethyl-p-phenylenediamine (TMPD).
COX-2 inhibitory activity was determined by using arachidonic acid (AA) as a substrate in buffer (0.1 M Tris pH 8.5) and TMPD as a co-substrate.

[6] = Lipophilicity as RM values by reverse-phase thin layer chromatography (RPTLC); assay type: physicochemical; details: methanol/water 75/25 v/v with ammonia drops
Source text: Since lipophilicity is a significant physicochemical property determining the absorption, distribution, metabolism and excretion properties (ADME) of drugs, we attempted to determine experimentally the lipophilicity as RM values with reverse-phase thin layer chromatography (RPTLC). Lipophilicity was also theoretically calculated as Clog P values. According to the calculated Clog P values, the most lipophilic compounds were 2iii (6.37) and 2v (6.04). However, this observation was not supported by the RM values, since Compound 2iii presented very low lipophilicity (−0.061). Furthermore, the lipophilicity of Compound 2v could not be determined experimentally under the reported conditions. Attempts to correlate Clog P and RM values failed. From our results (Table 2), it can be concluded that RM values could not be used as a successful relative measure of the overall lipophilic/hydrophilic properties of these molecules. Tentatively, this can be attributed to the different nature of the hydrophilic and lipophilic phases in the two systems. Clog P refers to n-octanol/water, whereas RM in this case refers to methanol/water. Moreover, it is likely that pyrrole derivatives form hydrogen bonds within the hydrophilic phase.
Reverse-phase thin layer chromatography (RPTLC) was used for the determination of RM values. Silica gel plates were saturated with 5% v/v liquid paraffin in petroleum ether, and the mobile phase was methanol/water (75/25 v/v) with the addition of ammonia drops. Spots were detected under UV light. RM values were determined by the corresponding Rf values (from five measurements for each compound) using the equation [43]: RM = log[(1/Rf) − 1](1)

[7] = molecular target: T2, interleukin-6 (IL-6) (Mus musculus, UniProt P08505); test: Inhibition of interleukin-6 (immunometric double antibody sandwich EIA); assay type: biochemical; details: compound 10 μM; IL-6 1500 pg/mL
T2 construct: purchased Cayman Item No. 583371
T2 sequence (P08505 25-211): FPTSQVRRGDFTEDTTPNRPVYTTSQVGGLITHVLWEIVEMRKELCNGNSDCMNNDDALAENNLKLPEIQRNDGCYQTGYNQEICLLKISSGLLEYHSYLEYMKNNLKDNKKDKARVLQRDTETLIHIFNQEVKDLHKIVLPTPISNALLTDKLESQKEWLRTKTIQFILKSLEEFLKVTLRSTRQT
Procedure: The assay used for the inhibition of IL-6 is based on an immunometric double antibody method (sandwich technique). […] Both compounds gave satisfactory biological responses, both in high and in low concentrations of IL-6 (Table 8).
The method was based on an immunometric double antibody sandwich technique. Each well of the microwell plate was coated with a specific for mouse IL-6 rat monoclonal antibody. Tested compounds at 10 μΜ and standards were incubated in the wells, and after rinsing, a second monoclonal antibody was added, which was conjugated with biotin and detected the captured IL-6. The recognition of double antibody sandwiches was done with HRP-conjugated streptavidin. The concentration of IL-6 was determined by measuring the enzymatic activity of HRP using the chromogenic substrate TMB (3,3′,5,5′-tetramethylbenzidine). The absorbance of the reaction product was measured at 450 nm, and the intensity of the color was directly proportional to the amount of bound HRP-streptavidin conjugate, which was proportional to the concentration of IL-6.

Structure (SMILES) | melting point [°C] | RA % (interaction with DPPH) ([3]; 100 μM compound, 20 min) [%] | RA % (interaction with DPPH) ([3]; 100 μM compound, 60 min) [%] | RA % (interaction with DPPH) ([3]; 1000 μM compound, 20 min) [%] | inhibition in vivo at 10 µmol/kg [4] [%] | further results
O=C(O)/C=C/c1ccc(O)c(O)c1 [Caffeic acid, reference compound] | – | – | – | – | – | IC50 ([1]; read-out: LP IC50 (inhibition of heme-dependent lipid peroxidation of linoleic acid)): 6 µM; O2^•− % superoxide radical scavenging activity [2]: 86.1%
CN(C)c1ccc(C=CC=CC(=O)c2ccccc2)cc1 [Compound 1ii, 5-[4-(Dimethylamino)phenyl]-1-phenylpenta-2,4-dien-1-one] | – | 31 | 13 | 38 | 69 | RA % (interaction with DPPH) ([3]; 1000 μM compound, 60 min): 42%
O=C(C=Cc1cccc2ccccc12)c1ccccc1 [Compound 1iv, 3-(Naphth-1-yl)-1-phenylprop-2-en-1-one] | – | – | – | – | 40 | –
O=C(C=Cc1cccc2ccccc12)c1ccc(Cl)cc1 [Compound 1v, 3-(Naphth-1-yl)-1-(4-chloro)phenylprop-2-en-1-one] | – | – | – | – | – | CPE % inhibition of rat paw edema induced by carrageenan [4]: 44 ^d %
O=C(C=Cc1ccc2[nH]ccc2c1)c1ccccc1 [Compound 1vi, 3-(1H-Indol-5-yl)-1-phenylprop-2-en-1-one] | – | – | – | – | 42 | –
COc1ccc2c(c1)c(CC(=O)O)c(C)n2C(=O)c1ccc(Cl)cc1 [Indomethacin, reference compound] | – | – | – | – | 53 | inhibition at 10 µM [7]: 100%
CC(Cc1ccc(O)c(O)c1)C(C)Cc1ccc(O)c(O)c1 (stereo not drawn) [NDGA, nordihydroguaiaretic acid, reference compound] | – | 81 | 83 | 96 | – | RA % (interaction with DPPH) ([3]; 1000 μM compound, 60 min): 96%

Continued, in another order:

melting point [°C] | Structure (SMILES) | RA % (interaction with DPPH) ([3]; 100 μM compound, 20 min) [%] | RA % (interaction with DPPH) ([3]; 100 μM compound, 60 min) [%] | RA % (interaction with DPPH) ([3]; 1000 μM compound, 20 min) [%] | inhibition in vivo at 10 µmol/kg [4] [%] | further results
48 to 50 | O=C(C=Cc1cccc(Oc2ccccc2)c1)c1cccs1 [Compound 1i, 3-(3-Phenoxyphenyl)-1-(thien-2-yl)prop-2-en-1-one] | 43 | 2 | 5 | 41 | –
141 to 143 | O=C(C=Cc1ccc(OCc2ccc(Br)cc2)cc1)c1cccs1 [Compound 1iii, 3-{4-[(4-Bromobenzyl)oxy]phenyl}-1-(thien-2-yl)prop-2-en-1-one] | – | – | – | 86 | –
219 to 220 | CN(C)c1ccc(/C=C/c2c[nH]cc2C(=O)c2ccccc2)cc1 [Compound 2ii, (E)-{4-[4-(Dimethylamino)styryl]-1H-pyrrol-3-yl}(phenyl)methanone] | 86 | 88 | 99 | 89 | LP IC50 (inhibition of heme-dependent lipid peroxidation of linoleic acid) [1]: inactive; inhibition at 100 µM ([5]; read-out: COX-2 % inhibition): 47%; interaction with DPPH ([3]; 20 min): 35%; interaction with DPPH ([3]; 60 min): 40%; RA % (interaction with DPPH) ([3]; 1000 μM compound, 60 min): 96%; RM [6]: 0.073
247 to 248 | O=C(c1ccccc1)c1c[nH]cc1-c1ccc2[nH]ccc2c1 [Compound 2vi, [4-(1H-Indol-5-yl)-1H-pyrrol-3-yl](phenyl)methanone] | – | – | – | – | LP IC50 (inhibition of heme-dependent lipid peroxidation of linoleic acid) [1]: inactive; COX-2 % inhibition ([5]; 100 μM): inactive; RM [6]: −0.685; O2^•− % superoxide radical scavenging activity [2]: 86%
